The conditions of series [1]: human, in vivo. The text has this: In a drug-drug interaction clinical pharmacology study the effects of the GLP-1 receptor agonist exenatide on the pharmacokinetics of bexagliflozin were studied in a randomized crossover study. It is known that GLP-1 receptor agonists retard gastric emptying and because the bexagliflozin dosage form has a gastroretentive mechanism, the possibility that the retardation would adversely affect bexagliflozin delivery was considered important to address (see e.g., Guideline on the pharmacokinetic and clinical evaluation of modified release dosage forms (EMA/CPMP/EWP/280/96 Corr1) section 5.1.4.2.). In the study, participants were assigned to either receive bexagliflozin alone first, or combined treatment with bexagliflozin and exenatide first. Each group received both treatments alternately, in a crossover fashion (two-period, two-treatment crossover design), with the two treatment periods separated by a 7-day washout period. […] Although the endpoints of the confidence intervals fell outside of the range 80-125%, indicating an interaction leading to a change in exposure when bexagliflozin was administered following exenatide, the effect of exenatide on bexagliflozin pharmacokinetics was not so large as to jeopardize patient safety or to provoke a recommendation for a change in prescribing pattern. […] Absorption was delayed when bexagliflozin was administered 30 minutes after exenatide injection, with a median Tmax of 5.00 hours post-dose compared to 2.00 hours post-dose following administration of bexagliflozin alone.

For series [2] the following is noted: quantitative mass balance studies using [^14C]-bexagliflozin; cited from earlier work.
Series [3] has as its target P-gp (Homo sapiens, UniProt P08183). In words: P-gp substrate observation. The class given is in vitro ADME. The source says: Because P-gp expression increases with distance along the small intestine, absorption is likely greater in the duodenum than the ileum, and quantitative mass balance studies using [^14C]-bexagliflozin have shown that colonic absorption is minimal (Zhang et al. Xenobiotica. 2019 Aug. 27:1-11. doi: 10.1080/00498254.2019.1654634). Because of the potential practical incompatibility of using an extended release tablet while aiming for most drug release to occur high in the small intestine, tablets of the invention advantageously include an adaptation that can help to retain them in the stomach. A large part of the extended release of bexagliflozin can thus occur in the stomach, permitting absorption of the drug to occur at the desired location in the small intestine, thereby providing an advantageous pharmacokinetic profile.

P-gp, sequence (P08183 whole entry): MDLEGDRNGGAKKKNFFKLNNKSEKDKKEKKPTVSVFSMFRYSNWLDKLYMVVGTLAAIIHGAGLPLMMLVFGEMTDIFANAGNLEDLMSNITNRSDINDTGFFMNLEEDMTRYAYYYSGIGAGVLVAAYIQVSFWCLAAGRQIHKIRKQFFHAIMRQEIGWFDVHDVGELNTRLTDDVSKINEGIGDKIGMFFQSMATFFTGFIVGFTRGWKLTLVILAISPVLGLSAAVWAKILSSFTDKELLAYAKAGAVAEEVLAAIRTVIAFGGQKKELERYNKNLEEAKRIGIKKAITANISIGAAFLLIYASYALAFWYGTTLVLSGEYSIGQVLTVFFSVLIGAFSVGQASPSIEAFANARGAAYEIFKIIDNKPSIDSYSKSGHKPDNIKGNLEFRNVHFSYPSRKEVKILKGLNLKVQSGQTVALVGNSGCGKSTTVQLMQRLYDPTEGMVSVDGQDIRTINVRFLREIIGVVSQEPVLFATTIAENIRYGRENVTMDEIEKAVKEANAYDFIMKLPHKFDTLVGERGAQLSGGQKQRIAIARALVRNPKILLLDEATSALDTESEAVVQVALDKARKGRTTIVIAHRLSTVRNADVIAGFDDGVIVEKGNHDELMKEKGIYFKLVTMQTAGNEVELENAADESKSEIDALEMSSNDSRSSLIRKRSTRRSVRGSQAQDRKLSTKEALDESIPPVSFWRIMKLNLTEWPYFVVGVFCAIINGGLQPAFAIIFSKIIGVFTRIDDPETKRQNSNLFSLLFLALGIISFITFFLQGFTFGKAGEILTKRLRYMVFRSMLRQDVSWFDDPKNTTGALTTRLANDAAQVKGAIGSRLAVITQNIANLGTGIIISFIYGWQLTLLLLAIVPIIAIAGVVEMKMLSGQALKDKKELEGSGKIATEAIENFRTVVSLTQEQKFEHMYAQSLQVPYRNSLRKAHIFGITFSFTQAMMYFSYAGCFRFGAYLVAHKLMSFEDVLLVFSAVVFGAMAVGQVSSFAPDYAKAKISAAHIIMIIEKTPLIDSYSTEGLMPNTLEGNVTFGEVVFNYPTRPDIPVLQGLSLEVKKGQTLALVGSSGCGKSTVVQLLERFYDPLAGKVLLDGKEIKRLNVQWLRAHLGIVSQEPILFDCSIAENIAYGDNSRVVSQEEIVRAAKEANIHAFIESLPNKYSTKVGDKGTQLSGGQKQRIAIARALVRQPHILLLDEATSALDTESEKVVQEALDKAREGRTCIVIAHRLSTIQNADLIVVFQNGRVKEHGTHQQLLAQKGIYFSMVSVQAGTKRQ

Consider `OC[C@H]1O[C@@H](c2ccc(Cl)c(Cc3ccc(OCCOC4CC4)cc3)c2)[C@H](O)[C@@H](O)[C@@H]1O` [bexagliflozin, (2S,3R,4R,5S,6R)-2-(4-chloro-3-(4-(2-cyclopropoxyethoxy)benzyl)phenyl)-6-(hydroxymethyl)tetrahydro-2H-pyran-3,4,5-triol], for which, in series [1], the “intra-subject variability for AUC0-t and AUC0-∞” value is recorded as below 22%; the “intra-subject variability for Cmax” value was “approximately 32%”; the “ratio of geometric least square means for AUC0-t, with exenatide to alone” value stood at 147.50%; the “ratio of geometric least square means for AUC0-∞, with exenatide to alone” value turned out to be 137.56%. The “ratio of geometric least square means for Cmax, with exenatide to alone” value in series [1] was 125.27%. Besides, in series [1] (sc), the “increase of AUC0-t compared to bexagliflozin alone” value is “approximately 48%”, the “increase of AUC0-∞ compared to bexagliflozin alone” value was around 38% and the “increase of Cmax compared to bexagliflozin alone” value is recorded as around 25%. For the same molecule, the colonic absorption entry in series [2] is “minimal”. Also, the P-gp substrate status result in series [3] was “P-gp substrate”.
